The subject of test [1] is Freund's complete adjuvant induced arthritis. The test can be described thus: Freund's complete adjuvant induced arthritis model, treatment of established arthritis. It counts as in vivo, Male Wistar rats. Conditions: for dose dependence of inhibition of arthritis: dose increased from 100 mg/kg to 300 mg/kg. As for the experimental part: (§1) The anti-inflammatory activity potential of both the isomers of the cetyl myristoleate (4 & 8) was evaluated initially in carrageenan induced rat paw edema model employing the method of Winter et al (Winter C A, Risley E A and Nuss G W, J. Pharmacolo. Exp. Ther. 1963; 141:369-376). The arthritis developed by injecting Freund's Complete Adjuvant in Wistar rats is almost similar to the rheumatoid arthritis of the human beings.
Effect of Hexadecyl cis-9-Tetradecenoate and Hexadecyl cis-10-Tetradecenoate on the Arthritic Rats: The hexadecyl cis-9-tetradecenoate, 4 and hexadecyl cis-10-tetradecenoate, 8 produced synthetically given above in Scheme 1 and 2 were subjected to evaluation for anti-arthritic potential in Freund's complete adjuvant induced arthritis model in rats. Male Wistar rats were divided into 4 groups each containing 6 rats. Arthritis was induced in rats in all the groups by administering Complete Freund's Adjuvant (CFA) at the dose of 1 mg per rat by injecting at sub plantar region of the right hind paw. Paw volumes were measured for both paws on every alternate day till 14 days and till full arthritis was developed.

For test [2], the system named is carrageenan induced paw edema. As to the kind of experiment: carrageenan induced rat paw edema model (anti-inflammatory potential). Conditions: rats. It counts as in vivo. As for the experimental part: as §1
Evaluation Studies of Hexadecyl cis-9-Tetradecenoate and Hexadecyl cis-10-Tetradecenoate for Anti-inflammatory. Potential: Hexadecyl cis-9-tetradecenoate, 4 and hexadecyl cis-10-tetradecenoate, 8 produced synthetically exemplified above in Scheme 1 and Scheme 2 were assessed for the anti-inflammatory potential against carrageenan induced paw edema model. Rats were divided into 4 groups. Hexadecyl cis-9-tetradecenoate, 4. and hexadecyl cis-10-tetradecenoate, 8 were administered intraperitoneally to rats in two different groups at a dose of 400 mg/kg. […] Paw volumes were measured using plethysmometer before injecting carrageenan. Paw volumes were again measured 3 hr after the carrageenan administration. The anti-inflammatory potential of hexadecyl cis-9-tetradecenoate, 4 and hexadecyl cis-10-tetradecenoate, 8 were assessed by measuring the inhibition of the paw volumes with reference to mean paw volume in control group.
A general note: Carrageenan injected into the paw causes an acute inflammation.

The test system of test [3] is Freund's Complete Adjuvant induced poly arthritis. The test can be described thus: Freund's complete adjuvant induced polyarthritis, protection (dosing from 24 hr after adjuvant). It counts as in vivo, Male Wistar rats. As for the experimental part: Evaluation of Hexadecyl cis-10-Tetradecenoate for Anti-arthritic Potential in Rats: The hexadecyl cis-10-tetradecenoate, 8 produced synthetically exemplified above in Scheme 2 was administered parenterally, particularly, by intraperitoneal route, either alone or in a compatible pharmaceutical carrier such as vegetable oils namely groundnut, sesame and cottonseed [for adjusting the dose volume of the active compound(s)] to male rats ranging in weight from 150 to 180 g. It should be noted that use of the mineral oil is not mandatory as the active compounds are oils themselves. The procedure as described in (Vogel's Drug Discovery and Evaluation Pharmacological assays, 2nd ed, 2002, Springer Verlag, pages 802-803) was followed. Male Wistar-rats were divided into one control and two treated groups. All the animals in three groups received Freund's complete adjuvant (1 mg/rat). This day was designated as day 1. After a period of 24 hr, hexadecyl cis-10-tetradecenoate, 8 was administered at a dose of 300 mg/kg to one treated group and another treated group received 2.5 mg/kg of indomethacin (used as standard drug). Dosing was continued for 15 days (FIG. 3). Control group received the vehicle (mineral oil) without any drug. Paw volumes (left and right) were measured on every alternate day.
All the rats in the control group developed severe polyarthritis as indicated by the increase in the paw volumes. […] Around 80% of the animals in the hexadecyl cis-10-tetradecenoate treated group were protected from developing arthritis in a period of 21 days. The remaining 20% rats were protected from arthritis in a period of 32 days.

The test system of test [4] is collagen-induced arthritis. The settings on record: synthesized pure compound, DBA/1 Lac J mice; cited from earlier work.

Structures are written as SMILES.

We go through two compounds from US8816109B2, “Process for preparation of hexadecyl cis-9-tetradecenoate and hexadecyl cis-10-tetradecenoate” (Council of Scientific & Industrial Research, priority 2009, dated 2014).

For `CCC/C=C\CCCCCCCCC(=O)OCCCCCCCCCCCCCCCC` [compound 8, hexadecyl cis-10-tetradecenoate], in test [1], the “dose dependence of inhibition of arthritis” value is listed as “dose dependent”. For the same compound, the “reduction of adjuvant-induced arthritis compared with hexadecyl cis-9-tetradecenoate, 4” value in test [1] (rats) is “comparable”. In test [2], the “inhibition of inflammation compared with hexadecyl cis-9-tetradecenoate, 4” value was “comparable”. Moreover, the “animals protected from developing arthritis in a period of 21 days” value is recorded as “Around 80%” in test [3] (300 mg/kg intraperitoneal, dosing for 15 days) and 80% in test [3] (300 mg/kg intraperitoneal, dosing for 15 days, listed as hexadecyl cis-10-tetradecenoate). Besides, the “remaining rats protected from arthritis in a period of 32 days” value in test [3] (300 mg/kg intraperitoneal, dosing for 15 days, period of 32 days) is given as 20%. Besides, the “protection from polyarthritis (paw volumes)” value in test [3] (300 mg/kg intraperitoneal, from 24 hr after adjuvant, dosing continued for 15 days) is “protected from the polyarthritis”. Moreover, the “effective range (dose) for protection of arthritis” value in test [3] (rats, Freund's complete adjuvant) lay in the range of 0.1 to 1.0 gm/kg body weight.
With `CCCC/C=C\CCCCCCCC(=O)OCCCCCCCCCCCCCCCC` [compound 4, hexadecyl cis-9-tetradecenoate], the “dose dependence of inhibition of arthritis” value in test [1] is recorded as “dose dependent”. Moreover, the anti arthritic properties result in test [4] is given as “confirmed its anti arthritic properties”.
